The values that follow come from patent publication US20250207167A1, “ASPERGILLUS SP. L14-OE::LAEA2 AND APPLICATION THEREOF IN PRODUCING CYCLIC TRIPEPTIDES” (Zhejiang University of Technology, priority 2023, published 2025).

A word on the inhibition: it is the change of the read-out against control, counted positive when it falls. As usually defined, the MIC is the lowest concentration found to suppress growth.

The test system of series [1] is Candida albicans ATCC 10231. As to the kind of experiment: Antifungal activity against Candida albicans (serial dilution MIC). It is filed as cell-based. The settings on record: 48 hours at 30° C., absorbance at 600 nm; for MIC: Candida albicans, ATCC10231. As for the experimental part: Candida albicans ATCC 10231, as an indicator strain, is activated for 3 days at 30° C. on the Sabouraud solid medium, and then amplified for 2 days at 30° C. and 180 rpm in the Sabouraud liquid medium to obtain an indicator liquid for antifungal activity testing.
An outermost ring of a 96-well plate is filled with 100 μL of the Sabouraud liquid medium for blank culture to prevent contamination; a first well of the 96-well plate is added with samples and the indicator liquid, with a total solution volume of 200 μL and a sample concentration of 128 μg/mL in the first well. A “serial dilution method” is used to achieve sample concentrations of 64, 32, 16, 8, 4, 2, 1, 0.5, and 0.25 μg/mL respectively in subsequent wells. Each sample has three parallel controls, and is incubated for 48 hours at 30° C. Then, the absorbance of the indicator liquid is measured at 600 nm using a microplate reader, and minimum inhibitory concentrations (MIC) of the compounds are recorded. The samples are the compound I, the compound II, and the compound III, with Amphotericin B as the control.

Series [2] concerns human hepatocellular carcinoma cell line (Hep-G2). Briefly: SRB tumor cell growth inhibition, Hep-G2. Type of series: cell-based. The settings on record: HepG2, 72 h, 3 days, read-out: human hepatocellular carcinoma cell line Hep-G2 growth inhibition rate %. The source says:
(§1) A Sulforhodamine B (SRB) colorimetric method is used to perform in vitro growth inhibition experiments on tumor cells with the isolated monomeric compounds A human brain glioma cell line (HEB) and a human hepatocellular carcinoma cell line (Hep-G2) both from Cell Resource Center, Institute of Basic Medical Sciences ([…]), China. Tumor cells in a logarithmic growth phase are selected and digested with trypsin followed by adjusting a cell concentration to 2×10^4 cells/mL with a Roswell Park memorial institute 1640 (RPMI 1640) medium containing 10% fetal bovine serum to obtain a tumor cell suspension. Sample solutions: the compound I, the compound II, and the compound III prepared in the embodiment 3 are separately added with DMSO to prepare 200 μM of the sample solutions. Control antibiotic solution: The antibiotic 5-fluorouracil (5-FU) is diluted with DMSO to prepare 100 μM of the control antibiotic solution. The tumor cell suspensions in Table 11 are inoculated into a 96-well culture plate at 190 μL per well, and then incubated at 37° C. with 5% carbon dioxide (CO2) for 24 hours. The culture wells are divided into drug wells, control wells, and blank wells. […] The blank wells are added with 10 μL of the RPMI 1640 medium containing 10% fetal bovine serum and an equal volume of DMSO as a solvent. The 96-well culture plate is then at 37° C. with 5% CO2 for incubation for 3 days followed by removing culture medium. Then, each well of the 96-well culture plate is slightly added with 100 μL of the 50% TCA solution pre-cooled at 4° C., and then allowed to stand for 5 min, followed by moving the 96-well culture plate to 4° C. for 1 hour to fix cells to obtain a cell-fixed plate. After discarding the fixing solution from the cell-fixed plate, the wells of the cell-fixed plate are washed five times with distilled water to remove TCA and then air-dried for 1 hour to obtain a first dried plate. Each well of the first dried plate is added with 80 μL of the 0.4% SRB solution for staining at room temperature for 30 min to obtain a stained plate. After discarding the staining solution of the stained plate, the stained plate is washed five times by 1% acetic acid aqueous solution to fully remove unbound SRB and then air-dried for 1 hour to obtain a second dried plate. Each well of the second dried plate is added with 150 μL of the 10 mM Tris-based solution for dissolving, and then oscillated for 5 min on a mini shaker (Mini shaker Kylin-Bell Lab instruments) to obtain an oscillated plate. Samples from each well of the oscillated plate are taken and an OD value at 570 nm is measured for each sample by using an M5 microplate reader.

Series [3] has as its system human brain glioma cell line (HEB). As to the kind of experiment: SRB tumor cell growth inhibition, HEB. Type of series: cell-based. The following applies: 72 h, 3 days, read-out: human brain glioma cell line HEB growth inhibition rate %.
From the text: as §1

The test system of series [4] is silkworms and American moths. The settings on record: against silkworms and American moths; literature; cited from earlier work.
Series [5] is described as follows: DPPH antioxidant activity test. It is filed as biochemical. The following applies: for Antioxidant activity IC50 value: DPPH scavenging, 37° C. half an hour. The method, then: 1 mg of solid DPPH is dissolved in 24 mL of methanol and then ultrasonicated for 5 min, followed by shaking thoroughly to obtain DPPH solution to ensure uniformity throughout the DPPH solution. 1 mL of the DPPH solution is taken and diluted by adding 0.5 mL of 95% methanol to obtain a diluted solution with an absorbance in a range of 0.6-1.0. The samples are added with methanol to prepare 1 mg/mL of sample solutions. The sample solutions are separately added to the DPPH solution while mixing continuously with a small start amount to obtain mixed solutions and an addition amount of the sample solutions gradually increases. Solution decolorization is observed when adding the sample solutions. When color of the mixed solutions has essentially faded, a maximum amount of the added sample solution is recorded. Based on the maximum amount, five additional amounts are set in an arithmetic sequence moving backwards. A final measurement is performed according to the arithmetic sequence, and for each amount, three parallel data points are measured. An absorbance value (A value) at each amount may be measured after placing the mixed solutions in a 37° C. oven for half an hour. An experimental antioxidant concentration serves as an x-axis and a scavenging rate serves as a y-axis, then a linear regression equation is calculated. 50% scavenging rate is substituted into the linear regression equation to obtain a corresponding x-axis value, which is a half-maximal inhibitory concentration (IC50) value. The samples are the compound I, the compound II, and the compound III, with vitamin C (Vc) as the control. The scavenging rate=((A0−A)/A0)×100; where A0 represents a value before adding the sample solutions, and A represents a value after adding the sample solutions.
Background: The DPPH test is a chemical assay of radical scavenging.

The conditions of series [6]: according to literature searches; cited from earlier work.
Series [7] relates to Candida albicans. The settings on record: reported in literature; cited from earlier work.

Converted amounts (≈) assume the structure as drawn.

Take `C[C@@H]1[C@H](O)[C@@H](C)/C=C/C=C/C=C/C=C/C=C/C=C/C=C/[C@H](O[C@@H]2O[C@H](C)[C@@H](O)[C@H](N)[C@@H]2O)C[C@@H]2O[C@](O)(C[C@@H](O)C[C@@H](O)[C@H](O)CC[C@@H](O)C[C@@H](O)CC(=O)O[C@H]1C)C[C@H](O)[C@H]2C(=O)O` [Amphotericin B, reference compound]: the “MIC value against the Candida albicans ATCC 10231” value in series [1] was 2 µg/mL (≈ 2.16 µM).
Consider `O=c1[nH]cc(F)c(=O)[nH]1` [Compound 5-FU, 5-fluorouracil, reference compound], for which the inhibition at 5 µM in series [2] (positive control, 5 μM) is 71.3%; in series [3] (positive control, 5 μM), 69.5%.
In series [1], `C/C=C/C=C/C=C/C(=O)N[C@H]1CCCNC(=O)[C@H](C)N(C)C(=O)[C@H](C(C)C)N(C)C1=O` [Compound I, aspochracin] showed an MIC of more than 128 µg/mL. In series [4], the insecticidal activity entry is listed as “recognized insecticidal activity”. In addition, in series [5], the “antioxidant activity (in words)” value is “moderate antioxidant activity” and the “Antioxidant activity IC50 value” is 420 µg/mL. In addition, in series [2], the inhibition at 10 µM was -17.9%. For the same compound, the inhibition at 10 µM in series [3] was -19.9%. In addition, in series [6], the mammalian toxicity entry is “extremely low mammalian toxicity”.
In series [1], `C/C=C/C=C/C=C/C(=O)N[C@H]1CCCNC(=O)[C@H](C)NC(=O)[C@H](C(C)C)N(C)C1=O` [Compound II, JBIR-15] registered a minimum inhibitory concentration (MIC) of 32 µg/mL (≈ 76.5 µM). For the same compound, in series [5], the “antioxidant activity (in words)” value is given as “moderate antioxidant activity” and the “Antioxidant activity IC50 value” is 400 µg/mL. The “anti-Candida albicans activity, minimum inhibitory concentration (MIC)” value in series [7] is 30 µg/mL. For the same compound, the inhibition at 10 µM in series [2] was 11.8%. Further, the inhibition at 10 µM in series [3] is -6.04%.
In turn, `C/C=C/C=C/C=C/C(=O)N[C@H]1CCCCNC(=O)[C@H](C)N(C)C(=O)[C@H](C(C)C)N(C)C1=O` [Compound III, sclerotiotide C] returned an MIC in series [1] of more than 128 µg/mL. In series [5], the “antioxidant activity (in words)” value is “moderate antioxidant activity” and the “Antioxidant activity IC50 value” is 430 µg/mL. Further, in series [2], the inhibition at 10 µM was 21.1%. The inhibition at 10 µM in series [3] was -13.7%.
Regarding `O=C1O[C@H]([C@@H](O)CO)C(O)=C1O` [Vc, vitamin C, reference compound], the “Antioxidant activity IC50 value” in series [5] is 9 µg/mL.
